Test results published in PMC11149885 (PLOS ONE, 2024).
Values joined by “and” are separate entries in the source; they are usually repeats but may differ in a detail not shown here. Equal values may be shown once.

Experiments:
[1] = synthetic melanin, 0.06 to 25.0μM, 37°C, 1 hour, ± SEM
FGFR1 = target: T1, FGFR1 (Homo sapiens, UniProt P11362); assay: HotSpot kinase screen; assay type: biochemical; settings: 10μM ATP
T1 construct: purchased Reaction Biology Corporation (contract assay)

FGFR3 = target: T2, FGFR3 (Homo sapiens, UniProt P22607); assay: HotSpot kinase screen; assay type: biochemical; settings: 1uM TKI, 10μM ATP
T2 construct: purchased Reaction Biology Corporation (contract assay)

FGFR2 = target: T3, FGFR2 (Homo sapiens, UniProt P21802); assay: HotSpot kinase screen; assay type: biochemical; settings: 10μM ATP
T3 construct: purchased Reaction Biology Corporation (contract assay)
T3 sequence (P21802 22-821): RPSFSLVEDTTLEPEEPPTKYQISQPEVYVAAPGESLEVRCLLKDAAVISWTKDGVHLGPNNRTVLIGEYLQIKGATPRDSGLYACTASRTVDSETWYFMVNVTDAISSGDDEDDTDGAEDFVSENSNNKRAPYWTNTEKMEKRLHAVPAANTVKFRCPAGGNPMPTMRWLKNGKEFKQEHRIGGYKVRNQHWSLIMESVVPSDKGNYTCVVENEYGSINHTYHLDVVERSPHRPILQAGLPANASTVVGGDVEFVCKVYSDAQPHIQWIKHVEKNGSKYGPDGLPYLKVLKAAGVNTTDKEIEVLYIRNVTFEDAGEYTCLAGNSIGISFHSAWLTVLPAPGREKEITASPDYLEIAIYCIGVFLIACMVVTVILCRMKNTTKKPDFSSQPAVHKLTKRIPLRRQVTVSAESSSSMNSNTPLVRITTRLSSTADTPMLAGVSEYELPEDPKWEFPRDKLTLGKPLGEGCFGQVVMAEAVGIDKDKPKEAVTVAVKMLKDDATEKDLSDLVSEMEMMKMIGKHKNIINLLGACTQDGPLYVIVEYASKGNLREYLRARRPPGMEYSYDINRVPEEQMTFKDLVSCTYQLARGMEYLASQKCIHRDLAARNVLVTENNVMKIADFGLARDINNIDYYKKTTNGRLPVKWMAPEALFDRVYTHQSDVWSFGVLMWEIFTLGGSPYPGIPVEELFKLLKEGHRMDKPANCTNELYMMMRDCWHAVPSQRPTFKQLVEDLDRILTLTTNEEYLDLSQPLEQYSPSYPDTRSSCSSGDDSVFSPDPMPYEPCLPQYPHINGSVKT
Description: (§1) Measurement of kinase activity was performed by Reaction Biology Corporation (Reaction Biology Corporation, Malvern, PA), using the HotSpot™ assay. The screen focused on RTKs reported in the literature to play a major role in the regulation of angiogenesis (VEGFR1, VEGFR2, and VEGFR3; fibroblast growth factor receptor [FGFR] 1, 2, and 3; and platelet-derived growth factor receptor beta [PDGFRβ]) as well as an RTK essential for maintaining blood vessel stability (TIE2). For the profiling, specific kinase/substrate pairs and required cofactors were prepared in a reaction buffer (20mM Hepes [pH 7.5], 10mM MgCl2, 1mM EGTA, 0.02% Brij35, 0.02 mg/mL BSA, 0.1mM Na3VO4, 2mM DTT, 1% dimethyl sulfoxide [DMSO]). TKI compounds were diluted to 10μM and 1μM concentrations for the screens and after addition to the reaction buffer incubated for 20 minutes, followed by the addition of a mixture of ATP (Sigma, St. Louis, MO) and ^33P-ATP (Perkin Elmer, Waltham, MA) to a final ATP concentration of 10μM. Reactions were carried out at room temperature for 2 hours, followed by spotting of the reactions onto P81 ion exchange filter paper (Whatman Inc., Piscataway, NJ). Unbound phosphate was removed by extensive washing of the filters. […] Kinome TREEspot images representing levels of inhibition were prepared using Kinome Mapper (https://www.reactionbiology.com/resources/tools/kinase-mapper).

VEGFR3 [2] = target: T4, VEGFR3 (Homo sapiens, UniProt P35916); assay: HotSpot kinase screen; assay type: biochemical; settings: 10μM ATP
T4 construct: purchased Millipore Corporation (Dundee, Scotland) or Reaction Biology Corporation (contract assay)
T4 sequence (P35916 25-1363): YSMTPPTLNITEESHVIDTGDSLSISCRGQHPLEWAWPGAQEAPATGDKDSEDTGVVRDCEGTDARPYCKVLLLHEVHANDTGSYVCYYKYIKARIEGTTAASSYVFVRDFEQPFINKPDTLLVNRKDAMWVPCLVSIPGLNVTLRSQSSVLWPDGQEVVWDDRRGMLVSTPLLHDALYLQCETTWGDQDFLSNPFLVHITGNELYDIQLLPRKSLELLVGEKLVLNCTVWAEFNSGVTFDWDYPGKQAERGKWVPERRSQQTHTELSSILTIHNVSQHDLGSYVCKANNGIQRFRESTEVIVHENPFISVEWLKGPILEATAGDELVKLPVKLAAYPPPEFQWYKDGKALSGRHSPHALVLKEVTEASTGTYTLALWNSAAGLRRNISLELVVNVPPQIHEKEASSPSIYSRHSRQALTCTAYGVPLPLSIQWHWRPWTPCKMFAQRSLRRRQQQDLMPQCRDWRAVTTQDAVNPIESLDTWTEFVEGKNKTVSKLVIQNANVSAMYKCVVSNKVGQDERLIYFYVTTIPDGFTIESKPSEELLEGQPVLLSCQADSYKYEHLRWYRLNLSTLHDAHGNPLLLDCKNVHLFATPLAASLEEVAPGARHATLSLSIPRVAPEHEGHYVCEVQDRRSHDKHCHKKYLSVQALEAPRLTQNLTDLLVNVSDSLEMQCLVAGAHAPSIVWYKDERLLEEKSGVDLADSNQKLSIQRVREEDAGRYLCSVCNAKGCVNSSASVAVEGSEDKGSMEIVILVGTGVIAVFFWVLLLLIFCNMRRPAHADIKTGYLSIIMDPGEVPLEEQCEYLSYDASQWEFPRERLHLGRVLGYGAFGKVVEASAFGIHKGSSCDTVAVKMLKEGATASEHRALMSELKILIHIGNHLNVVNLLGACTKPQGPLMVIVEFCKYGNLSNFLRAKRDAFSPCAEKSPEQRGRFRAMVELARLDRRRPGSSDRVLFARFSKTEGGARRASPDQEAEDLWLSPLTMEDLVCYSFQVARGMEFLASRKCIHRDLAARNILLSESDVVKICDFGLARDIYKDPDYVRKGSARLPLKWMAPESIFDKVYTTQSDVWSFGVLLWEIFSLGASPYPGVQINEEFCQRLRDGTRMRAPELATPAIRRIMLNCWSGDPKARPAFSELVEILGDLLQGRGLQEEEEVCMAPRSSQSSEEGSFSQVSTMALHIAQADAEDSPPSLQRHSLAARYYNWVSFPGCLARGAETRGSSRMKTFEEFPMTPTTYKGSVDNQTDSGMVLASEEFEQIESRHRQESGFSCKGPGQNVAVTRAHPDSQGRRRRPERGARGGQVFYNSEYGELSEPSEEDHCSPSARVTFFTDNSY
Description: as §1

PDGFRβ = target: T5, PDGFRβ (Homo sapiens, UniProt P09619); assay: HotSpot kinase screen; assay type: biochemical; settings: 10μM ATP
T5 construct: purchased Reaction Biology Corporation (contract assay)

VEGFR3 [3] = target: T4, VEGFR3; assay: Ten-dose IC50 measurement; assay type: biochemical; settings: 10μM ATP
[4] = system: VEGF-A–induced sprouting of HUVECs; assay: HUVEC spheroid sprouting assay; assay type: cell-based, human; settings: for cumulative sprout length per spheroid (CSL), mean: 25 ng/mL VEGF-165, 24 hours
Description: The three TKI compounds were tested by Reaction Biology Europe (Freiburg, Germany) in the spheroid-based cellular angiogenesis assay to determine their effect on VEGF-A–induced sprouting of HUVECs. Primary HUVECs from pooled donors at passage 3 to 4 (PromoCell, Heidelberg, Germany) were grown in endothelial cell growth and basal medium (ECGM/ECBM, PromoCell). Test compounds were prepared as 100-fold concentrated stock solutions in DMSO and pre-diluted in basal medium. HUVECs were stimulated using 25 ng/mL VEGF-165 (Reaction Biology Europe, Freiburg, Germany) pre-diluted in basal medium.
Spheroids were prepared as described by pipetting 400 HUVECs in a hanging drop on plastic dishes to allow overnight spheroid aggregation. Fifty HUVEC spheroids were seeded in 0.9 mL of a collagen gel and pipetted into individual wells of a 24-well plate to allow polymerization. Test compounds and VEGF-165 were added after 30 minutes by pipetting 100 μL of a ten-fold concentrated solution onto the polymerized gel. Plates were incubated at 37°C for 24 hours, and cells were fixed by adding 4% paraformaldehyde (Roth, Karlsruhe, Germany). Sprouting intensity of HUVEC spheroids treated with the test samples was quantitated using an image analysis system to determine the cumulative sprout length (CSL) per spheroid. Images of single spheroids were captured using an inverted microscope and the digital imaging software NIS-Elements BR 3.0 (Nikon). Spheroid pictures were uploaded to Wimasis (www.wimasis.com) for image analysis. The CSL of each spheroid was determined using the imaging analysis tool WimSprout. The mean CSL of ten randomly selected spheroids was analyzed as an individual data point.

VEGFR1 [5] = target: T6, VEGFR1 (Homo sapiens, UniProt P17948); assay: Ten-dose IC50 measurement; settings: 10μM ATP
T6 sequence (P17948 27-1338): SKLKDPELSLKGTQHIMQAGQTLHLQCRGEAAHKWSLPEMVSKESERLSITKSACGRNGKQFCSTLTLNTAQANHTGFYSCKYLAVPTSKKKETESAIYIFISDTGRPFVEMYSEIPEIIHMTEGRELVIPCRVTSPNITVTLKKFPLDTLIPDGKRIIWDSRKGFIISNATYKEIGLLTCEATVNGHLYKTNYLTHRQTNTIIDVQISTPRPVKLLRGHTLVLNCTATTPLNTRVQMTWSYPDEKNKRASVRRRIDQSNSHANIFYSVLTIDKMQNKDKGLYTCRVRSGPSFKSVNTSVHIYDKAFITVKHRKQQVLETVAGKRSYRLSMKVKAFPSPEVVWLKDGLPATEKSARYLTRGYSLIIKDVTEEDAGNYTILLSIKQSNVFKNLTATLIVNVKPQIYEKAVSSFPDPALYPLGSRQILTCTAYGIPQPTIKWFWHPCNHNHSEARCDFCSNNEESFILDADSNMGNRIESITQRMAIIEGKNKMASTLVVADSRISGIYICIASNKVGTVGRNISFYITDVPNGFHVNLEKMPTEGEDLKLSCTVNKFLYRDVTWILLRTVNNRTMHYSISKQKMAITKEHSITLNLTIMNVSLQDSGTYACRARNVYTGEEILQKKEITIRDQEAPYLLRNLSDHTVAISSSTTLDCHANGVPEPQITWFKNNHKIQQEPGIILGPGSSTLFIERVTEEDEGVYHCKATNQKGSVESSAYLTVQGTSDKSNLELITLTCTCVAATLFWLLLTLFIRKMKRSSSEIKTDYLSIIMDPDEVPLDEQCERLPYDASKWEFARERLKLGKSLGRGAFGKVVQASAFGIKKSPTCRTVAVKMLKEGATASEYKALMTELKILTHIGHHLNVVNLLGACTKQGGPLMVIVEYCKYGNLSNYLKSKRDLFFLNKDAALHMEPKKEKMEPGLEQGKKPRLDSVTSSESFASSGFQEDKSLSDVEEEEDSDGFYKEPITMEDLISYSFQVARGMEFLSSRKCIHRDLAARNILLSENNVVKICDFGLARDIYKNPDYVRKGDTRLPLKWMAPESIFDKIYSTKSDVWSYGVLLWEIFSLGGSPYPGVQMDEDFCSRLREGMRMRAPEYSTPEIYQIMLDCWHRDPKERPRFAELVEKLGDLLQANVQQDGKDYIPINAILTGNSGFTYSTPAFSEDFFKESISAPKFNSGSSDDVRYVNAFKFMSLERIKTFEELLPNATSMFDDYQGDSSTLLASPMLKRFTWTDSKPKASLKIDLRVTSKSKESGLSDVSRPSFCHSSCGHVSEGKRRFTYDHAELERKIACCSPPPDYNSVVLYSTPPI

TIE2 [6] = target: T7, TIE2 (Homo sapiens, UniProt Q02763); assay: Ten-dose IC50 measurement; settings: 10μM ATP
T7 sequence (Q02763 23-1124): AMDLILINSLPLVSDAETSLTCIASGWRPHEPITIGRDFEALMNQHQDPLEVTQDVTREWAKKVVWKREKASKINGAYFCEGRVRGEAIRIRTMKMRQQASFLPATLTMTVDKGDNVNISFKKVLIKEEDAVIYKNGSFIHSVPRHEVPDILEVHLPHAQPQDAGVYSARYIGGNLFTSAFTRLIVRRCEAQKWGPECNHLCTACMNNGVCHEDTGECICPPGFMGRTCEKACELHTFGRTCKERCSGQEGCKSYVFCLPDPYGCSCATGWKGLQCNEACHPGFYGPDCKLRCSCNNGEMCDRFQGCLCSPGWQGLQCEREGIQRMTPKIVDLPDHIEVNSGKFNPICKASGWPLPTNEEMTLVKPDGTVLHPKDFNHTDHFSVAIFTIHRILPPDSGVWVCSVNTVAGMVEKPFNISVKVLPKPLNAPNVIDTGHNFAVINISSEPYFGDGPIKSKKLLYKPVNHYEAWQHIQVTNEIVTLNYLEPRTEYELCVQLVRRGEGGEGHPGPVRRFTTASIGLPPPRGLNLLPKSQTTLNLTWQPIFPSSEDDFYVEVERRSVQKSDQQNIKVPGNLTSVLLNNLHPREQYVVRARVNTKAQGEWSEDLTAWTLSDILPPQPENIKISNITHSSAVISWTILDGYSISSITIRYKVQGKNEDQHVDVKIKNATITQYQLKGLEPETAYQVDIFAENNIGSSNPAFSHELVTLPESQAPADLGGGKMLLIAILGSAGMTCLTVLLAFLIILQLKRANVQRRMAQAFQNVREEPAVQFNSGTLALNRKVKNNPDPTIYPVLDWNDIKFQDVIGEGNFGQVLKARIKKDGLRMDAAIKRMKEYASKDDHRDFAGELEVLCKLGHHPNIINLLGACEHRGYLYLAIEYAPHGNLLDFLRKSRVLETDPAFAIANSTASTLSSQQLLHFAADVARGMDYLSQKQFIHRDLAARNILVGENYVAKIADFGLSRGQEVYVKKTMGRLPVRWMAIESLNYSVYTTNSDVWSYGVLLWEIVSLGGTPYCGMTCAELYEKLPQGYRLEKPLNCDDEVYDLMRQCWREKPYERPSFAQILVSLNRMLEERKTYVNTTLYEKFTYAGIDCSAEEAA

TIE2 [7] = target: T7, TIE2; assay: HotSpot kinase screen; assay type: biochemical; parameters: purchased Reaction Biology Corporation (contract assay); settings: 1uM TKI, 10μM ATP
[8] = system: VEGF-induced angiogenesis on the CAM; assay: Gelatin sponge chick chorioallantoic membrane (CAM) assay
VEGFR1 [9] = target: T6, VEGFR1; assay: HotSpot kinase screen; assay type: biochemical; parameters: purchased Millipore Corporation (Dundee, Scotland) or Reaction Biology Corporation (contract assay); settings: 10μM ATP
Description: as §1

Compound: CCN(CC)CCCC(C)Nc1ccnc2cc(Cl)ccc12 (stereo not drawn) [Chloroquine]
- Kd [1]: 3.06 ± 0.6 µM

Compound: CCN(CC)CCNC(=O)c1c(C)[nH]c(/C=C2\C(=O)Nc3ccc(F)cc32)c1C [Sunitinib]
- Avg % Inhibition FGFR1 (FGFR1; 1uM TKI): 61.61%
- Avg % Inhibition FGFR1 (FGFR1; 10uM TKI): 93.09%
- Avg % Inhibition FGFR3 (FGFR3): 79.29%
- Avg % Inhibition FGFR2 (FGFR2; 1uM TKI): 77.42%
- Avg % Inhibition FGFR2 (FGFR2; 10uM TKI): 98.03%
- Avg % Inhibition VEGFR3 (VEGFR3 [2]; 1uM TKI): 86.7%
- Avg % Inhibition VEGFR3 (VEGFR3 [2]; 10uM TKI): 99.18%
- Avg % Inhibition PDGFRb (PDGFRβ; 1uM TKI): 92.22%
- Avg % Inhibition PDGFRb (PDGFRβ; 10uM TKI): 97.19%
- %Activity VEGFR3 (VEGFR3 [3]; 1.00E-05 M TKI): 1.67%
- %Activity VEGFR3 (VEGFR3 [3]; 1.11E-06 M TKI): 9.53%
- %Activity VEGFR3 (VEGFR3 [3]; 1.23E-07 M TKI): 31.11%
- %Activity VEGFR3 (VEGFR3 [3]; 1.37E-08 M TKI): 63.61%
- %Activity VEGFR3 (VEGFR3 [3]; 1.52E-09 M TKI): 80.77%
- %Activity VEGFR3 (VEGFR3 [3]; 3.33E-06 M TKI): 3.43%
- %Activity VEGFR3 (VEGFR3 [3]; 3.70E-07 M TKI): 18.20%
- %Activity VEGFR3 (VEGFR3 [3]; 4.12E-08 M TKI): 47.10%
- %Activity VEGFR3 (VEGFR3 [3]; 4.57E-09 M TKI): 73.23%
- %Activity VEGFR3 (VEGFR3 [3]; 5.08E-10 M TKI): 86.68%
- cumulative sprout length per spheroid (CSL), mean ([4]; 1.00E-05 M TKI): 99
- cumulative sprout length per spheroid (CSL), mean ([4]; 1.00E-06 M TKI): 298
- cumulative sprout length per spheroid (CSL), mean ([4]; 1.00E-07 M TKI): 387
- cumulative sprout length per spheroid (CSL), mean ([4]; 3.00E-06 M TKI): 173
- cumulative sprout length per spheroid (CSL), mean ([4]; 3.00E-07 M TKI): 230
- cumulative sprout length per spheroid (CSL), mean ([4]; 3.00E-08 M TKI): 893
- vessel sprouting (representative spheroid images) ([4]; highest test concentration of 1×10^–5M): zero vessel sprouting
- %Activity VEGFR1 (VEGFR1 [5]; 1.00E-05 M TKI): 2.53%
- %Activity VEGFR1 (VEGFR1 [5]; 1.11E-06 M TKI): 20.58%
- %Activity VEGFR1 (VEGFR1 [5]; 1.37E-08 M TKI): 78.18%
- %Activity VEGFR1 (VEGFR1 [5]; 1.52E-09 M TKI): 84.25%
- %Activity VEGFR1 (VEGFR1 [5]; 3.33E-06 M TKI): 8.53%
- %Activity VEGFR1 (VEGFR1 [5]; 3.70E-07 M TKI): 35.25%
- %Activity VEGFR1 (VEGFR1 [5]; 4.12E-08 M TKI): 63.70%
- %Activity VEGFR1 (VEGFR1 [5]; 4.57E-09 M TKI): 84.35%
- %Activity VEGFR1 (VEGFR1 [5]; 5.08E-10 M TKI): 93.32%
- %Activity TIE2 (TIE2 [6]; 1.00E-05 M TKI): 44.88%
- %Activity TIE2 (TIE2 [6]; 1.11E-06 M TKI): 93.41%
- %Activity TIE2 (TIE2 [6]; 1.37E-08 M TKI): 98.62%
- %Activity TIE2 (TIE2 [6]; 1.52E-09 M TKI): 99.65%
- %Activity TIE2 (TIE2 [6]; 3.33E-06 M TKI): 74.48%
- %Activity TIE2 (TIE2 [6]; 3.70E-07 M TKI): 96.23%
- %Activity TIE2 (TIE2 [6]; 4.12E-08 M TKI): 95.60%
- %Activity TIE2 (TIE2 [6]; 4.57E-09 M TKI): 97.42%
- %Activity TIE2 (TIE2 [6]; 5.08E-10 M TKI): 95.09%
- Avg % Inhibition TIE2 (TIE2 [7]): 5.03%
- Avg % Inhibition TIE2 (TIE2 [7]; listed as sunitinib): 5%
- Angiogenesis - Vessel number, Mean ([8]; TKI at 200 x VEGFR2 IC50): 7
- Angiogenesis - Vessel number, individual egg ([8]; TKI at 200 x VEGFR2 IC50, one value per egg): 8.67 and 8.33 and 1.67 and 6.67 and 3.33
- reduction of the number of blood vessels perfusing the sponges vs negative control ([8]; TKI at 200× VEGFR2 IC50 dose): 49.3%
- Angiogenesis - Vessel thickness score, Mean ([8]; TKI at VEGFR2 IC50 dose, score 0-3): 1.8
- Angiogenesis - Vessel thickness score, individual egg ([8]; TKI at VEGFR2 IC50 dose, score 0-3, one value per egg): 3 and 0.67 and 2 and 2.33 and 1.33 and 1
- Avg % Inhibition VEGFR1 (VEGFR1 [9]; 1uM TKI): 77.03%
- Avg % Inhibition VEGFR1 (VEGFR1 [9]; 10uM TKI): 93.14%
